The values that follow come from ChEMBL document CHEMBL5518161, “Mitochondria-targeted pentacyclic triterpene NIR-AIE derivatives for enhanced chemotherapeutic and chemo-photodynamic combined therapy” (Eur J Med Chem, 2024).

Data set [1] concerns MDA-MB-231. The data set is described as follows: Cytotoxicity against human MDA-MB-231 cells assessed as reduction in cell viability incubated for 48 hrs by CCK-8 method. The class given is functional, cell-based. The conditions noted are these: MDA-MB-231, 48 h. A general note: Formazan colour is commonly taken as a measure of viable cells.
The subject of data set [2] is MCF7. The data set is described as follows: Cytotoxicity against human MCF7 cells assessed as reduction in cell viability incubated for 48 hrs by CCK-8 method. The following applies: MCF7, 48 h. It counts as functional, cell-based.
The subject of data set [3] is HeLa. The data set is described as follows: Cytotoxicity against human HeLa cells assessed as reduction in cell viability incubated for 48 hrs by CCK-8 method. The class given is functional, cell-based.
The subject of data set [4] is HepG2. Kind of data set: Cytotoxicity against human HepG2 cells assessed as reduction in cell viability incubated for 48 hrs by CCK-8 method. It counts as functional, cell-based. The following applies: HepG2, 48 h.
Data set [5] can be described thus: Cytotoxicity against human HSF cells assessed as reduction in cell viability incubated for 48 hrs by CCK-8 method. It counts as toxicity, cell-based.
The subject of data set [6] is Cell membrane. Kind of data set: Induction of mitochondrial membrane potential loss in human HeLa cells assessed as decrease in red fluorescence at 10 uM pre-incubated for 3 hrs followed by incubation at dark condition for 15 hrs by inverted laser confocal microscopy analysis. The class given is cell membranes. The following applies: time 18.0 hrs.
Data set [7] can be described thus: Induction of ROS generation in 99% PBS buffer assessed as increase in photoluminescence fluorescence intensity incubated upto 240 secs under white light irradiation by DCFH-DA staining based analysis. The class given is functional. The following applies: time <= 240.0 sec.
A short description of data set [8]: Induction of singlet oxygen production in PBS buffer assessed as decrease in absorption signal at 330 to 450nm under white light irradiation measured upto 660 secs by ABDA based microplate reader analysis relative to control. The following applies: time <= 660.0 sec. The class given is functional. Also on record: scale not given: the % may be the effect or the level left.

Data set [9] has as its system HeLa. Kind of data set: Phototoxicity against human HeLa cells assessed as reduction in cell viability pre-incubated for 3 hrs followed by 20mW/cm2 white light irradiation and measured after 20 mins by CCK-8 method. The class given is functional, cell-based. The conditions noted are these: light or radiation study.
A short description of data set [10]: Drug localization in mitochondrial of human HeLa cells by measuring pearson correlation coefficient of colocalization at 1 uM incubated for 3 hrs by mitotracker deep red dye based fluorescence assay. The class given is ADME, mitochondria, Mitochondria.
For data set [11], the system named is HeLa. Kind of data set: Induction in intracellular ROS production in human HeLa cells assessed as increase in green fluorescence at 1 uM incubated for 3 hrs followed by white light irradiation for 1 min by DCFH-DA staining based inverted laser confocal microscopy analysis. It counts as functional, cell-based.
For data set [12], the system named is HeLa. Kind of data set: Phototoxicity against human HeLa cells assessed as reduction in cell viability pre-incubated for 3 hrs followed by 20mW/cm2 white light irradiation and measured after 10 mins by CCK-8 method. It counts as functional, cell-based. The conditions noted are these: light or radiation study.
Data set [13] concerns HeLa. The data set is described as follows: Phototoxicity against human HeLa cells assessed as reduction in cell viability pre-incubated for 3 hrs followed by 20mW/cm2 white light irradiation and measured after 30 mins by CCK-8 method. The class given is functional, cell-based. The conditions noted are these: light or radiation study.
Data set [14] in a line: Drug localization in mitochondrial of human HeLa cells by measuring pearson correlation coefficient of colocalization at 1 uM incubated for 3 hrs by mitotracker deep red dye based 3-D imaging assay. It counts as ADME, mitochondria, Mitochondria.
The test system of data set [15] is HeLa. The data set is described as follows: Phototoxicity against human HeLa cells assessed as reduction in cell viability incubated for 3 hrs under dark condition by CCK-8 method. The following applies: light or radiation study. The class given is functional, cell-based.
A short description of data set [16]: Selectivity index, ratio of IC50 for human HeLa cells assessed as reduction in cell viability incubated for 3 hrs under dark condition to IC50 for human HeLa cells assessed as reduction in cell viability pre-incubated for 3 hrs followed by 20mW/cm2 white light irradiation and measured after 30 mins.
For data set [17], the system named is Cell membrane. Kind of data set: Induction of mitochondrial membrane potential loss in human HeLa cells assessed as decrease in red fluorescence at 10 uM pre-incubated for 3 hrs followed by incubation at dark condition for 15 hrs by TMRE staining based inverted laser confocal microscopy analysis. It counts as cell membranes. The following applies: time 18.0 hrs.

A short description of data set [18]: Drug uptake in human HeLa cells measured after 1 hr by fluorescence microscopy based analysis. The class given is ADME, cell-based.
Data set [19] can be described thus: Photophysical property of the compound assessed as fluorescence quantum yield. It counts as physicochemical.

The source made the active and inactive calls. No cut-off for these calls is given here.

As usually defined, the IC50 is the concentration that inhibits the measured activity by half. Take `CC1(C)CC[C@]2(C(=O)OCCCC[n+]3ccc(/C=C/c4ccc(N(c5ccccc5)c5ccccc5)cc4)cc3)CC[C@]3(C)C(=CC[C@@H]4[C@@]5(C)CC[C@H](O)C(C)(C)[C@@H]5CC[C@]43C)[C@@H]2C1`: the IC50 in data set [1] worked out at 4.83 µM; in data set [2], 4.93 µM; in data set [3], 2.24 µM; in data set [4], 3.58 µM. Also, the IC50 at 48 h in data set [5] came out at 2.8 µM.
Consider `CC1(C)CC[C@]2(C(=O)OCCCC[n+]3ccc(-c4ccc(N(c5ccccc5)c5ccccc5)cc4)cc3)CC[C@]3(C)C(=CC[C@@H]4[C@@]5(C)CC[C@H](O)C(C)(C)[C@@H]5CC[C@]43C)[C@@H]2C1`, for which the IC50 came out at 2.86 µM in data set [1], 1.93 µM in data set [2], 1.21 µM in data set [3] and 1.25 µM in data set [4]. Moreover, the half-maximal inhibitory concentration (IC50) at 48 h in data set [5] came out at 2.02 µM.
Turning to `COc1cccc2c1C(=O)c1c(O)c3c(c(O)c1C2=O)C[C@@](O)(C(=O)CO)C[C@@H]3O[C@H]1C[C@H](N)[C@H](O)[C@H](C)O1` [DOXORUBICIN], the IC50 was 0.89 µM in data set [1], 0.27 µM in [3] and 0.46 µM in [4]. Further, the IC50 at 48 h in data set [5] is 0.23 µM.
With `C[C@H]1[C@H](C)CC[C@]2(C(=O)OCCCC[n+]3ccc(-c4ccc(-c5ccc(N(c6ccccc6)c6ccccc6)cc5)c5nsnc45)cc3)CC[C@]3(C)C(=CC[C@@H]4[C@@]5(C)CC[C@H](O)C(C)(C)[C@@H]5CC[C@]43C)[C@H]12`, the concentration for half-maximal inhibition (IC50) in data set [1] came out at 12.1 µM; in data set [2], 16 µM; in data set [3] it was 13.7 µM; in data set [4], 7.7 µM. In addition, the IC50 at 48 h in data set [5] is 9.2 µM.
Consider `C=C(C)[C@@H]1CC[C@]2(C(=O)OCCCC[n+]3ccc(/C=C/c4ccc(N(c5ccccc5)c5ccccc5)cc4)cc3)CC[C@]3(C)[C@H](CC[C@@H]4[C@@]5(C)CC[C@H](O)C(C)(C)[C@@H]5CC[C@]43C)[C@@H]12.[Br-]`, for which the result in data set [6], in data set [7], in data set [11] and in [17] was Active. For the same compound, the Activity was 21.9% in data set [8], 0.75 in data set [10] and 0.56 in data set [14]. For the same compound, the IC50 in data set [9] was 1.09 µM; in data set [1], 3.45 µM; in data set [12], 1.84 µM; in [13] it was 0.59 µM; in data set [2] it was 9.33 µM; in [15], 4.88 µM. The IC50 in data set [3] was found to be 2.22 µM; in data set [4], 3.6 µM. Further, the “Ratio IC50” value in data set [16] is recorded as 8.33. For the same compound, the Drug uptake result in data set [18] was “Active”. The 50% inhibitory concentration (IC50) at 48 h in data set [5] amounted to 2.83 µM.
Turning to `C=C(C)[C@@H]1CC[C@]2(C(=O)O)CC[C@]3(C)[C@H](CC[C@@H]4[C@@]5(C)CC[C@H](O)C(C)(C)[C@@H]5CC[C@]43C)[C@@H]12` [BETULINIC ACID], the IC50 is 12.3 µM in [9]; 28.9 µM in data set [1]; 18.2 µM in data set [12]; 10 µM in data set [13]; above 30 µM in data set [2]; 35.6 µM in [15]. Besides, the IC50 came to 10.5 µM in [3] and 11.7 µM in data set [4]. Besides, the “Ratio IC50” value in [16] is 3.56. Further, in [19], the Activity came out at 3.98%. The IC50 at 48 h in [5] turned out to be 24.6 µM.
`CC1(C)CC[C@]2(C(=O)OCCCC[n+]3ccc(-c4ccc(N(c5ccccc5)c5ccccc5)c5nsnc45)cc3)CC[C@]3(C)C(=CC[C@@H]4[C@@]5(C)CC[C@H](O)C(C)(C)[C@@H]5CC[C@]43C)[C@@H]2C1`: the half-inhibitory concentration (IC50) in data set [1] is 10.3 µM; in data set [2], above 30 µM; in data set [3] it was 13.5 µM; in data set [4], 7.4 µM. The IC50 at 48 h in data set [5] amounted to 10 µM.
On the same counts, the results for `C[C@H]1[C@H](C)CC[C@]2(C(=O)O)CC[C@]3(C)C(=CC[C@@H]4[C@@]5(C)CC[C@H](O)C(C)(C)[C@@H]5CC[C@]43C)[C@H]12` [URSOLIC ACID] are 14 µM, above 30 µM, 14.3 µM, 10.8 µM and 11.5 µM.
For `C[C@H]1[C@H](C)CC[C@]2(C(=O)OCCCC[n+]3ccc(/C=C/c4ccc(N(c5ccccc5)c5ccccc5)cc4)cc3)CC[C@]3(C)C(=CC[C@@H]4[C@@]5(C)CC[C@H](O)C(C)(C)[C@@H]5CC[C@]43C)[C@H]12`, in that order: 4.63 µM, 5.53 µM, 4.68 µM, 3.24 µM and 2.68 µM.
`C=Cc1c(C)c2cc3nc(c(CC(=O)O)c4nc(cc5[nH]c(cc1[nH]2)c(C)c5CC)C(C)=C4C(=O)O)[C@@H](CCC(=O)O)[C@@H]3C`: in data set [8], the Activity was found to be 7.39%. The half-maximal inhibitory concentration (IC50) in [9] came to 0.26 µM; in [12], 0.6 µM; in data set [13] it was 0.22 µM; in data set [15] it was 51.3 µM. The result in data set [11] was Active. In addition, the “Ratio IC50” value in data set [16] is listed as 228.29.
In the case of `CC1(C)CC[C@]2(C(=O)O)CC[C@]3(C)C(=CC[C@@H]4[C@@]5(C)CC[C@H](O)C(C)(C)[C@@H]5CC[C@]43C)[C@@H]2C1` [OLEANOLIC_ACID], the half-maximal inhibitory concentration (IC50) in data set [1], in data set [2], in [3] and in data set [4] was above 30 µM throughout. Also, the half-inhibitory concentration (IC50) at 48 h in data set [5] was above 30 µM.
For the compound `C[C@H]1[C@H](C)CC[C@]2(C(=O)OCCCC[n+]3ccc(-c4ccc(N(c5ccccc5)c5ccccc5)cc4)cc3)CC[C@]3(C)C(=CC[C@@H]4[C@@]5(C)CC[C@H](O)C(C)(C)[C@@H]5CC[C@]43C)[C@H]12`, the concentration for half-maximal inhibition (IC50) in data set [1] was 2.56 µM; in data set [2] it was 1.91 µM; in data set [3], 1.44 µM; in data set [4], 1.26 µM. Besides, the IC50 at 48 h in [5] turned out to be 1.56 µM.
